Source: patent US10611764B2 (Wisconsin Alumni Research Foundation, priority 2017, dated 2020)
Residue numbers refer to the chain shown, from its start. pEC50: −log10 of the molar value.

Legend:
[1] = target: T1, mouse AHR (mAHR B1-allele) (Mus musculus, UniProt P30561, M589L/N533S/P471L); experiment: cell-based
T1 sequence (P30561 10-805 P471L/N533S/M589L): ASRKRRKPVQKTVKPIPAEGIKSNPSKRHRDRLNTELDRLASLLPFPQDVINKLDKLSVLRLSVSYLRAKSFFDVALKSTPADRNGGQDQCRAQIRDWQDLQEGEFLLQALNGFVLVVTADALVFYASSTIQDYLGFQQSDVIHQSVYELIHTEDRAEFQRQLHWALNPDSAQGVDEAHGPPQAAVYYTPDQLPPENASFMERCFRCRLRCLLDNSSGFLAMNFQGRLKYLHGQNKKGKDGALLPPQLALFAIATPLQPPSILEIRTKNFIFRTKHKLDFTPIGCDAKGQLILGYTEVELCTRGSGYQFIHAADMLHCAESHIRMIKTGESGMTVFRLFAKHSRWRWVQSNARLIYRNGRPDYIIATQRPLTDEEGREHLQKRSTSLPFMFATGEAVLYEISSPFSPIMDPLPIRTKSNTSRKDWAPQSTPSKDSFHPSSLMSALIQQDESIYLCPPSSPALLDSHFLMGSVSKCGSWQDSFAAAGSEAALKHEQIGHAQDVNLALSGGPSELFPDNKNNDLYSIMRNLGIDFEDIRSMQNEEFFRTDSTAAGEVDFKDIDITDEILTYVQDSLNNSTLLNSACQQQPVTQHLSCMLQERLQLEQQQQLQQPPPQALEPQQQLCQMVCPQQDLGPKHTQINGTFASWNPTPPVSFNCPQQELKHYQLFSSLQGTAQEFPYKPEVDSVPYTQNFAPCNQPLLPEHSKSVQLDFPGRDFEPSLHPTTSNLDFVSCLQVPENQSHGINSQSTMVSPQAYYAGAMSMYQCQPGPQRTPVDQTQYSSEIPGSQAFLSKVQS
Method: The wild type and mutant mAHR were cloned into the XhoI/SalI cloning sites of pTARGET (Promega, Madison, Wis.) using routine PCR and molecular cloning procedures using the pSport-mAHR plasmid (PL65) as template (Dolwick, Swanson et al. 1993). For recombinant expression of mAHR, COS-1 cells were cultured in 6 cm dishes and transfected with 2 μg of wild-type or mutant mAHR expression vector. Twenty-four hours after transfection, cells were collected, and the whole cell extracts were prepared by celLytic M reagent (Sigma-Aldrich, St Louis, Mo.). 100 μg of whole cell extract was analyzed by western blot using antibodies that specifically recognize the mAHR (bear-2) and β-actin (Sigma).
COS-1 cells were cultured in 96-well plates and transiently transfected with pTarget vector containing the expression cassette of wild-type or mutant mAHR, or empty vector (3 ng), together with pGudLu6.1 DREs-driven luciferase reporter vector (14 ng) (Han, Nagy et al. 2004) and TK-renilla luciferase vector (3 ng) (Invitrogen, Carlsbad Calif.). […] The expressed luciferase activity was measured by ENSPIRE plate reader (Perkin Elmer, USA). Data analysis and simulation of dose response curves were performed using GraphPad Prism 5 (GraphPad software Inc., La Jolla, Calif.). The experiments were performed in triplicate and repeated at least three times. Representative results of one repeat are shown as mean±SEM.

mAHR Q377A mutant = target: T2, mAHR Q377A mutant (Mus musculus, UniProt P30561, Q377A); experiment: Luciferase reporter gene assay, mutant mAHR Q377A in COS-1 cells; format: cell-based; settings: relative to WT mAHR
T2 construct: expressed in transfected cells; host or cells: COS-1
T2 sequence (P30561 10-805 Q377A limits assumed): T1 sequence (P30561 10-805 P471L/N533S/M589L) with Q368A, L462P, S524N, L580M

mAHR H285A mutant = experiment: Luciferase reporter gene assay, mutant mAHR H285A in COS-1 cells; format: cell-based, mouse; settings: relative to WT mAHR
[2] = test system: Salmonella typhimurium tester strains (TA97a, TA98, TA100, and TA1535) and Escherichia coli strain (WP2 uvrA pKM101); experiment: Ames screening; settings: with and without S9, 7.8-250 ng/well
Method: The Ames screening detects both frameshift and base-pair substitution mutations using 4 Salmonella typhimurium tester strains (TA97a, TA98, TA100, and TA1535) and 1 Escherichia coli strain (WP2 uvrA pKM101). Strains TA97a and TA98 detect frameshift mutations, and TA100, TA1535, and WP2 uvrA pKM101 detect base-pair substitution mutations. This scaled-down Ames test uses minimal compound, is conducted with and without metabolic activation (S9 fraction), and uses multiwell plates. The Ames screen for TEACOP 270 was tested in duplicate with strains TA97a, TA98, TA100, TA1535, and WP2 uvrA pKM101 in the presence and absence of a metabolic activation system (Aroclor™ 1254 induced rat liver S9 microsomal fraction) at 7.8, 15.5, 31, 62.5, 125, and 250 ng/well. Positive control compounds were used at 4 different concentrations to ensure the assay system was sensitive to known mutagenic compounds. DMSO was used as the vehicle control.

[3] = Solubility in commonly used (NMR) solvents; format: physicochemical

C1=Cc2c3ccccc3nc3nc4ccccc4c(c23)N1 [Compound 4]
pEC50 [1]: 9.42
fold lower measured activity than Compound 4 ([1]; purified sample largely contaminated by lipids, FIG. 5c): more than 10 fold
effect of Q377A mutation on AHR induction activity (mAHR Q377A mutant): barely affected
effect of H285A mutation on AHR induction activity (mAHR H285A mutant): drastically affected
mutagenicity (Ames test) [2]: No mutagenicity is detected
solubility in CDCl3 ([3]; TFA salt): good solubility
solubility ([3]; free base form): poor solubility
solubility in commonly used solvents (CDCl3, CD3OD, DMSO-d6, etc) ([3]; isolated material): very poor solubility
